From patent US20090270259A1, “Novel Agrochemical Formulations” (priority 2005, published 2009)

Assay: Determination of the active substance content inside the film (UV-vis in THF, with and without ethanol wash)
Type: physicochemical
Conditions: Ecoflex film of Example 1, washed in 15 ml ethanol, UV-vis intensity ratio at 244 nm and 290 nm
Description: For applications for the controlled release of active substance, it is useful to determine the active substance content enclosed in the film more specifically.
For this, 27.3 mg of a film charged with chlorpyrifos and prepared by the procedure described above were dissolved in 15 ml of tetrahydrofuran (THF), which is a good solvent both for the active substance and also for the polymer. 0.5 milliliters of this solution were further diluted to a volume of 20 ml with THF; a UV-vis spectrum was recorded for the dilute solution.
In a comparison experiment, the film was firstly washed in 15 ml of ethanol and dried before being analyzed as described above in a solution of THF by means of UV-vis spectroscopy.
Reference spectra were measured a series of THF solutions which, as well as 33.5 mg/l of Ecoflex® comprising Ecoflex® pellets, also comprised chlorpyrifos in concentrations of from 0 to 24 mg/l. A suitable comparison parameter which clearly reflects the chlorpyrifos content is the intensity ratio I2/I1 of characteristic peaks in the UV-vis spectrum at the wavelengths 244 nm and 290 nm.

## CCOP(=S)(OCC)Oc1nc(Cl)c(Cl)cc1Cl [chlorpyrifos]
dried, dissolved in THF
  chlorpyrifos used in the film preparation that remains in the film after washing with ethanol (enclosed fraction, released in a delayed manner): 24%
  active substance washed away with ethanol (fraction on the film surface, directly available): 76%
